How the values were obtained:
[1] = biological target: GABA A receptor alpha-5/beta-3/gamma-2 (Rattus norvegicus, UniProt P18508+P19969+P63079); experiment: Displacement of [3H]muscimol from GABAA alpha-1-beta-3-gamma-2S in rat brain membrane; format: cell membranes
[2] = biological target: T1, GABA-A receptor; alpha-1/beta-3/gamma-2 (Homo sapiens, UniProt P14867+P18507+P28472); experiment: Binding affinity at human GABAA alpha-1-beta-3-gamma-2S expressed in Xenopus oocytes by voltage-clamp electrophysiology; format: functional, cell-based, Oocyte
T1 sequence (P14867 whole entry): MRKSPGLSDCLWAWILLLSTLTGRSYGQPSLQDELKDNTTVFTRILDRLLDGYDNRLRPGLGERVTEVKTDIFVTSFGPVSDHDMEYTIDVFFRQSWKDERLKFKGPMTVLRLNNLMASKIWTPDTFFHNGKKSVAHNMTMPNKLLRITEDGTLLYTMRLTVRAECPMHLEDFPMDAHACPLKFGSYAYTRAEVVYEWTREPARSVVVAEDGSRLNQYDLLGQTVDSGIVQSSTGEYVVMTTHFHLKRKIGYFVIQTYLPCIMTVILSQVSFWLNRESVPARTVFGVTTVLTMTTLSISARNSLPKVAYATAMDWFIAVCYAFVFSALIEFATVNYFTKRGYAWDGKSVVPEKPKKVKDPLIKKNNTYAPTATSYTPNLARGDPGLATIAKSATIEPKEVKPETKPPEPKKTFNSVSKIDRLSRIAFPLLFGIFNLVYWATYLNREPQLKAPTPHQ
T1 sequence (P18507 whole entry): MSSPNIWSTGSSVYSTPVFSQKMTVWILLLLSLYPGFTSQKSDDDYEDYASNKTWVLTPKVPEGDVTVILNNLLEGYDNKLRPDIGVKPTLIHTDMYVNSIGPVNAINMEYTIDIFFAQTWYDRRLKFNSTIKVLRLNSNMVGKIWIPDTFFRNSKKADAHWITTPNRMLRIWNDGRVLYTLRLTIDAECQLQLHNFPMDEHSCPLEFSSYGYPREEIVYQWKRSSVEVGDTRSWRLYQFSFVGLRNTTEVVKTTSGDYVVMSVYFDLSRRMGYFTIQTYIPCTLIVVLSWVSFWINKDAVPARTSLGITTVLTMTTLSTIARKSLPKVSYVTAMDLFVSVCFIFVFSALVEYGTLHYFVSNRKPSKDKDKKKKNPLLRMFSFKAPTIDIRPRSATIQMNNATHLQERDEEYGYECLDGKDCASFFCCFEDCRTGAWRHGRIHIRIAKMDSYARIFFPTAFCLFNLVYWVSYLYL
T1 sequence (P28472 whole entry): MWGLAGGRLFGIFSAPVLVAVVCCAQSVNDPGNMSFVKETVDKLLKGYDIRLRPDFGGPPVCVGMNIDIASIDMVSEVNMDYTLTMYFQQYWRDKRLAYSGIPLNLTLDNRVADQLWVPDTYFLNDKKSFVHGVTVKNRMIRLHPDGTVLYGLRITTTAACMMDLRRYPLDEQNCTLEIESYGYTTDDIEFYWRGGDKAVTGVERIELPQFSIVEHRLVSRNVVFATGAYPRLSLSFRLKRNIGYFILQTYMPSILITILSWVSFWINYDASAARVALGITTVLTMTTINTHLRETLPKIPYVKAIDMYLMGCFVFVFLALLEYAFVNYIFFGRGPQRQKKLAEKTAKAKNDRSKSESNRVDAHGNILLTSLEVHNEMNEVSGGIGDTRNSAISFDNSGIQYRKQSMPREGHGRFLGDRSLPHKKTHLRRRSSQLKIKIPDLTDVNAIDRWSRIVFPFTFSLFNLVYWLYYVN

[3] = Binding affinity at human GABAA alpha-4-beta-3-delta expressed in Xenopus oocytes by voltage-clamp electrophysiology; format: functional, cell-based; conditions: oocyte
[4] = biological target: GABA-A receptor; alpha-1/beta-3/gamma-2 (Homo sapiens) (UniProt P14867+P18507+P28472); experiment: Maximal effect at GABA alpha-1-beta-3-gamma-2S expressed in Xenopus oocytes; format: functional, cell-based; conditions: Oocyte
[5] = Maximal effect at GABA alpha-4-beta-3-delta expressed in Xenopus oocytes; format: functional; conditions: Homo sapiens, Oocyte

GABA A receptor alpha-5/beta-3/gamma-2, sequence (P18508 whole entry): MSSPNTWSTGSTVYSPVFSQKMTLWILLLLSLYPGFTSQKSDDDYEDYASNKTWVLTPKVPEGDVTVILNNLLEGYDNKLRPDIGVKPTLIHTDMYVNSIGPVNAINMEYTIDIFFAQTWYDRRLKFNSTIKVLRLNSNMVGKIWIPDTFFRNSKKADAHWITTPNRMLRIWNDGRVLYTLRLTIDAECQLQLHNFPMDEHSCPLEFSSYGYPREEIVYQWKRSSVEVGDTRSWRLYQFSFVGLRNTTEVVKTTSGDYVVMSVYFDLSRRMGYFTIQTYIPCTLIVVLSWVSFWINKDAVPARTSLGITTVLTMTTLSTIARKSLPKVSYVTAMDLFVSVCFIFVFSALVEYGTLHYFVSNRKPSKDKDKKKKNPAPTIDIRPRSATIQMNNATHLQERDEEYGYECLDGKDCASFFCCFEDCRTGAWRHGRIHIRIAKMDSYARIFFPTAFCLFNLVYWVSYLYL
GABA A receptor alpha-5/beta-3/gamma-2, sequence (P19969 whole entry): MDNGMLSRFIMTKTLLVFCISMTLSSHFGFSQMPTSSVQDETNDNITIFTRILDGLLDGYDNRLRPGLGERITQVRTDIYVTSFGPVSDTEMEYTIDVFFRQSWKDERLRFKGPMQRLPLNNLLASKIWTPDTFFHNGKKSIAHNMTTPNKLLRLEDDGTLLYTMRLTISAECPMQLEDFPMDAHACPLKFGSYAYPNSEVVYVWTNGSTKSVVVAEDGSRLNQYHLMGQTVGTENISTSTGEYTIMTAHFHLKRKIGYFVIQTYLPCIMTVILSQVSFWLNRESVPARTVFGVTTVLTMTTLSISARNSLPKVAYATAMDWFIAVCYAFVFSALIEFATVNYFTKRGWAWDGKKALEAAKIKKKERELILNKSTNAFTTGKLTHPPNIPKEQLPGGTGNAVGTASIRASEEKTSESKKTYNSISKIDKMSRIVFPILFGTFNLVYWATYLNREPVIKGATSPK
GABA A receptor alpha-5/beta-3/gamma-2, sequence (P63079 whole entry): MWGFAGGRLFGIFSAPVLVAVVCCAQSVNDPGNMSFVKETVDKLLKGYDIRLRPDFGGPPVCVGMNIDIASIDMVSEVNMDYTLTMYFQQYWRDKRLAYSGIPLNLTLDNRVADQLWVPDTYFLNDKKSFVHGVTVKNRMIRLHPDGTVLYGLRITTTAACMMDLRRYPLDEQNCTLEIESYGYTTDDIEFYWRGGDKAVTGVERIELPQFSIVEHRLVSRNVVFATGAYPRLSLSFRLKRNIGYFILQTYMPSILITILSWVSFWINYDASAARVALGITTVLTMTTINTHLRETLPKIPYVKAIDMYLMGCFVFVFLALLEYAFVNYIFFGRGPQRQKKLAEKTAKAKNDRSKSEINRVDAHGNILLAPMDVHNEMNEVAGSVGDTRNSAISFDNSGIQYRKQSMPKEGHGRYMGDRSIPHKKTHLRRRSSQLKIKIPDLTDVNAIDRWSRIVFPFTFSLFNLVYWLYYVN

Oc1nsc(C2CCNCC2)c1Cc1ccccc1
Ki [1]: 0.331 µM | Ki [2]: 0.465 µM

Oc1noc(C2CCNCC2)c1CCC(c1ccccc1)c1ccccc1
Ki [1]: 0.068 µM | Ki [2]: 0.02 µM | Ki [3]: 0.0023 µM | Emax [4]: 90%

Oc1nsc(C2CCNCC2)c1CCC(c1ccccc1)c1ccccc1
Ki [1]: 0.0096 µM | Ki [2]: 0.0012 µM | Ki [3]: 0.00035 µM | Emax [5]: 40%

Cc1c(O)nsc1C1CCNCC1
Ki [1]: 2.2 µM | Ki [2]: 2.88 µM

CCCc1c(C2CCNCC2)s[nH]c1=O
Ki [1]: 0.44 µM | Ki [2]: 0.23 µM

O=c1[nH]sc(C2CCNCC2)c1CC(c1ccccc1)c1ccccc1
Ki [1]: 0.388 µM | Ki [2]: 0.72 µM

Oc1noc(C2CCNCC2)c1Cc1ccc2ccccc2c1
Ki [1]: 0.049 µM | Ki [2]: 0.37 µM

Oc1nsc(C2CCNCC2)c1Cc1ccc2ccccc2c1
Ki [1]: 0.0052 µM | Ki [2]: 0.022 µM

Oc1nsc(C2CCNCC2)c1Cc1ccc2ccccc2c1Br
Ki [1]: 0.0018 µM | Ki [2]: 0.003 µM

Oc1cc(C2CCNCC2)sn1
Ki [1]: 1.87 µM | Ki [2]: 25.7 µM
